Reference: patent EP0092073A1, “Magnesium salt of chenodeoxycholic acid and ursodeoxycholic acid, the process for its preparation, and therapeutic compositions which contain it as active principle” (SCHWARZ ITALIA S.p.A., priority 1982, dated 1983)

Columns and labels:
dog = experiment: Acute lethality and toxicity, oral administration (gastric probe); assay type: in vivo; parameters: key to Toxic symptomatology Type: NN = no symptomatology; D = depression; details: for % mortality at following times after administration 24 h / % mortality at following times after administration 7 days / Toxic symptomatology Type / Toxic symptomatology Latency: oral; for LD50 (mg/kg with reliability limits) 7 days after treatment: po, also printed as greater than 600 Dts/kg
Mus musculus = experiment: Lethality and toxicity, endoperitoneal administration; assay type: in vivo; parameters: key to Toxic symptomatology Type: NN = no symptomatology; D = depression; details: for % mortality at the following times after administration 24 h / % mortality at the following times after administration 7 days / Toxic symptomatology Latency / Toxic symptomatology Type: endoperitoneal; for LD50 (mg/kg with reliability limits) 7 days after treatment: ip, probit method
Procedure: (§1) Unless otherwise specified, the research was carried out using: a) Mg-UCD capsules as such; b) the powdered contents of Mg-UCD capsules; CDCA (chenodeoxycholic acid) and UDCA (ursodeoxycholic acid) as pure substance which in all cases was partly dissolved and partly suspended under warm conditions (T = 30°C) in 10% gum arabic mucilage (so as to administer 10-40 ml of liquid per kg orally). In certain cases, namely in the experiments involving parenteral administration, the active principle of Mg-UCD, the chenodeoxycholic acid and ursodeoxycholic acid were dissolved in distilled water of slightly alkaline pH (5-10 ml/kg).
(§2) The generally acute lethality, toxicity and tolerability were determined by oral administration of the Mg-UCD (by gastric probe) in the Mus musculus, rat and dog. Animals of both sexes were used, none of which were pregnant. They were fasted for about 12 hours before treatment (but allowing them free access to water). The investigations were carried out using the Mg-UCD in powder form. Comparative investigations were carried out on the rat and Mus musculus using the active principle by endoperitoneal administration, and chenodeoxycholic acid and ursodeoxycholic acid by oral administration (using a gastric probe). Each dose was administered to 20 rats or Mus musculus (10 male and 10 female) and to eight dogs (4 male and 4 female). The animals were observed attentively during the 7 days following administration, and any lethality, toxic symptoms, disturbances, functional variations determinable with the eye, behaviour etc. were noted.
(§3) The LD50 was determined 7 days after administration using the probit method.

rat = experiment: as above; assay type: in vivo; parameters: key to Toxic symptomatology Type: NN = no symptomatology; D = depression; details: for % mortality at the following times after administration 24 h / % mortality at the following times after administration 7 days / Toxic symptomatology Latency / Toxic symptomatology Type: endoperitoneal; for LD50 (mg/kg with reliability limits) 7 days after treatment: ip, probit method
Procedure: as §1, §2, §3

Solubility = assay type: physicochemical
[1] = Hydrolysis by the gastric juice; details: prodrug supplying its two component acids

double magnesium salt of chenodeoxycholic acid and ursodeoxycholic acid [Mg-UCD]
% mortality at following times after administration 24 h (dog; Dog F, 250 mg/kg (60 Dts/kg)): 0% | % mortality at following times after administration 7 days (dog; Dog F, 250 mg/kg (60 Dts/kg)): 0% | Toxic symptomatology Type (dog; Dog F, 250 mg/kg (60 Dts/kg)): NN | % mortality at following times after administration 24 h (dog; Dog F, 2500 mg/kg (600 Dts/kg)): 0% | % mortality at following times after administration 7 days (dog; Dog F, 2500 mg/kg (600 Dts/kg)): 0% | Toxic symptomatology Latency (dog; Dog F, 2500 mg/kg (600 Dts/kg)): 5-10 min | Toxic symptomatology Type (dog; Dog F, 2500 mg/kg (600 Dts/kg)): D | LD50 (mg/kg with reliability limits) 7 days after treatment (dog; Dog F): greater than 2500 mg/kg (greater than 600 Dts/kg) | % mortality at following times after administration 24 h (dog; Dog M, 250 mg/kg (60 Dts/kg)): 0% | % mortality at following times after administration 7 days (dog; Dog M, 250 mg/kg (60 Dts/kg)): 0% | Toxic symptomatology Type (dog; Dog M, 250 mg/kg (60 Dts/kg)): NN | % mortality at following times after administration 24 h (dog; Dog M, 2500 mg/kg (600 Dts/kg)): 0% | % mortality at following times after administration 7 days (dog; Dog M, 2500 mg/kg (600 Dts/kg)): 0% | Toxic symptomatology Latency (dog; Dog M, 2500 mg/kg (600 Dts/kg)): 5-10 min | Toxic symptomatology Type (dog; Dog M, 2500 mg/kg (600 Dts/kg)): D | LD50 (mg/kg with reliability limits) 7 days after treatment (dog; Dog M): greater than 2500 mg/kg (greater than 600 Dts/kg) | any case of death or any significant toxic symptomatology (dog; dog, oral (gastric probe), 7 days following treatment, individual doses up to 2500 mg/kg of active principle (600 Dts/kg)): does not show | % mortality at the following times after administration 24 h (Mus musculus; M. musculus F, 1000 mg/kg): 0% | % mortality at the following times after administration 7 days (Mus musculus; M. musculus F, 1000 mg/kg): 0% | Toxic symptomatology Latency (Mus musculus; M. musculus F, 1000 mg/kg): 1-2 min | Toxic symptomatology Type (Mus musculus; M. musculus F, 1000 mg/kg): D | % mortality at the following times after administration 24 h (Mus musculus; M. musculus F, 2000 mg/kg): 10% | % mortality at the following times after administration 7 days (Mus musculus; M. musculus F, 2000 mg/kg): 10% | Toxic symptomatology Latency (Mus musculus; M. musculus F, 2000 mg/kg): 1-2 min | Toxic symptomatology Type (Mus musculus; M. musculus F, 2000 mg/kg): D | % mortality at the following times after administration 24 h (Mus musculus; M. musculus F, 4000 mg/kg): 70% | % mortality at the following times after administration 7 days (Mus musculus; M. musculus F, 4000 mg/kg): 70% | Toxic symptomatology Latency (Mus musculus; M. musculus F, 4000 mg/kg): 1-2 min | Toxic symptomatology Type (Mus musculus; M. musculus F, 4000 mg/kg): D | LD50 (mg/kg with reliability limits) 7 days after treatment (Mus musculus; M. musculus F): 2455 (1984-3039) mg/kg | % mortality at the following times after administration 24 h (Mus musculus; M. musculus M, 1000 mg/kg): 0% | % mortality at the following times after administration 7 days (Mus musculus; M. musculus M, 1000 mg/kg): 0% | Toxic symptomatology Latency (Mus musculus; M. musculus M, 1000 mg/kg): 1-2 min | Toxic symptomatology Type (Mus musculus; M. musculus M, 1000 mg/kg): D | % mortality at the following times after administration 24 h (Mus musculus; M. musculus M, 2000 mg/kg): 10% | % mortality at the following times after administration 7 days (Mus musculus; M. musculus M, 2000 mg/kg): 10% | Toxic symptomatology Latency (Mus musculus; M. musculus M, 2000 mg/kg): 1-2 min | Toxic symptomatology Type (Mus musculus; M. musculus M, 2000 mg/kg): D | % mortality at the following times after administration 24 h (Mus musculus; M. musculus M, 4000 mg/kg): 60% | % mortality at the following times after administration 7 days (Mus musculus; M. musculus M, 4000 mg/kg): 60% | Toxic symptomatology Latency (Mus musculus; M. musculus M, 4000 mg/kg): 1-2 min | Toxic symptomatology Type (Mus musculus; M. musculus M, 4000 mg/kg): D | LD50 (mg/kg with reliability limits) 7 days after treatment (Mus musculus; M. musculus M): 2455 (1984-3039) mg/kg | % mortality at the following times after administration 24 h (rat; Rat F, 1000 mg/kg): 0% | % mortality at the following times after administration 7 days (rat; Rat F, 1000 mg/kg): 0% | Toxic symptomatology Latency (rat; Rat F, 1000 mg/kg): 1-2 min | Toxic symptomatology Type (rat; Rat F, 1000 mg/kg): D | % mortality at the following times after administration 24 h (rat; Rat F, 2000 mg/kg): 10% | % mortality at the following times after administration 7 days (rat; Rat F, 2000 mg/kg): 10% | Toxic symptomatology Latency (rat; Rat F, 2000 mg/kg): 1-2 min | Toxic symptomatology Type (rat; Rat F, 2000 mg/kg): D | % mortality at the following times after administration 24 h (rat; Rat F, 4000 mg/kg): 60% | % mortality at the following times after administration 7 days (rat; Rat F, 4000 mg/kg): 60% | Toxic symptomatology Latency (rat; Rat F, 4000 mg/kg): 1-2 min | Toxic symptomatology Type (rat; Rat F, 4000 mg/kg): D | LD50 (mg/kg with reliability limits) 7 days after treatment (rat; Rat F): 2449 (2063-2906) mg/kg | % mortality at the following times after administration 24 h (rat; Rat M, 1000 mg/kg): 0% | % mortality at the following times after administration 7 days (rat; Rat M, 1000 mg/kg): 0% | Toxic symptomatology Latency (rat; Rat M, 1000 mg/kg): 1-2 min | Toxic symptomatology Type (rat; Rat M, 1000 mg/kg): D | % mortality at the following times after administration 24 h (rat; Rat M, 2000 mg/kg): 10% | % mortality at the following times after administration 7 days (rat; Rat M, 2000 mg/kg): 10% | Toxic symptomatology Latency (rat; Rat M, 2000 mg/kg): 1-2 min | Toxic symptomatology Type (rat; Rat M, 2000 mg/kg): D | % mortality at the following times after administration 24 h (rat; Rat M, 4000 mg/kg): 70% | % mortality at the following times after administration 7 days (rat; Rat M, 4000 mg/kg): 70% | Toxic symptomatology Latency (rat; Rat M, 4000 mg/kg): 1-2 min | Toxic symptomatology Type (rat; Rat M, 4000 mg/kg): D | LD50 (mg/kg with reliability limits) 7 days after treatment (rat; Rat M): 2288 (1902-2751) mg/kg | Solubility (Solubility; in alcohol): fairly soluble in alcohol | Solubility (Solubility; in water, listed as Mg salt): practically insoluble in water | Solubility (Solubility; in water, listed as double salt): insoluble in water | hydrolysis by the gastric juice [1]: hydrolysed slowly
